Where two headings read alike, the source gives them in different places. Where only a bound is given, the exact number is not on record here.

The record followed here is patent US11332463B2, “Spiropiperidine allosteric modulators of nicotinic acetylcholine receptors” (Merck Sharp & Dohme Corp., priority 2018, dated 2022).

The target of this assay is T1, human α7 nicotinic acetylcholine receptor (HEK cell line stably expressing human RIC-3 and human α7) (Homo sapiens, UniProt P36544).
T1 construct: host or cells: HEK cell line (PrecisION hnAChR α7/RIC-3)
In words: Automated patch-clamp electrophysiology functional assay (Assay A), IonFlux HT, whole-cell population patch. The format is cell-based. On the technique in general: The patch-clamp technique gives a direct electrical read-out from membranes.

The mark [1] stands for this setting: HEK cells expressing human α7/RIC-3, test compound with or without 40 μM acetylcholine, holding potential −60 mV, room temperature, read-out: α7 nAChR Potency.
Setting [2] is: automated patch-clamp electrophysiology functional assay (Assay A), read-out: α7 nAChR EC50.

T1 sequence (P36544 23-502): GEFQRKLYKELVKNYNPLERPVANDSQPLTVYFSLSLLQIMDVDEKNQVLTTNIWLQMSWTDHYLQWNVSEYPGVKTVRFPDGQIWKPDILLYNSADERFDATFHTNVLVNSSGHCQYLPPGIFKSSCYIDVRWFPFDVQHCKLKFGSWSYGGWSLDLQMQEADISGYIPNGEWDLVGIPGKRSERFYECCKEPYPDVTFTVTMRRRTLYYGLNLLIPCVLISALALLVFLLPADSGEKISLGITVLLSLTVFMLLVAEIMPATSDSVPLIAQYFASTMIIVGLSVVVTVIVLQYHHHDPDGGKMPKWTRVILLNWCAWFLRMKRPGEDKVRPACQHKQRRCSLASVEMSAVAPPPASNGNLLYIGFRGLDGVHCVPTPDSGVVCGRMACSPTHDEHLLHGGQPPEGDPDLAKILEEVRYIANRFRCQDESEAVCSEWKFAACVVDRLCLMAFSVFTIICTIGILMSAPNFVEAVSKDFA

With `NS(=O)(=O)N1CCC2(CC1)[C@H](c1noc(-c3cnn4c3CCCC4)n1)C2(F)F` [Example E40], the EC50 runs as follows: under setting [1], 500 to 5000 nM; under setting [2], 840 nM.
For `NS(=O)(=O)N1CCC2(CC1)[C@H](c1noc(-c3cnn4c3CSCC4)n1)C2(F)F` [Example 18, (2R)-2-[5-(6,7-Dihydro-4H-pyrazolo[5,1-c][1,4]thiazin-3-yl)-1,2,4-oxadiazol-3-yl]-1,1-difluoro-6-azaspiro[2.5]octane-6-sulfonamide], the EC50 is 500 to 5000 nM under setting [1] and 800 nM under setting [2].
Taken in the same sequence, the figures for `NS(=O)(=O)N1CCC2(CC1)C[C@H]2c1noc(-c2ccc(C(F)(F)F)cc2OC(F)F)n1` [Example D9] were 500 to 5000 nM and 820 nM.
Consider `Cn1ncc(-c2nc([C@@H]3C(F)(F)C34CCN(S(N)(=O)=O)CC4)no2)c1C(F)(F)F` [Example E38], for which the EC50 by setting is: under setting [1], 100 to 500 nM; under setting [2], 270 nM.
In the case of `NS(=O)(=O)N1CCC2(CC1)C[C@H]2c1nnc(-c2cccc(OC(F)(F)F)c2)o1` [Example F3], the EC50 was 500 to 5000 nM under setting [1] and 700 nM under setting [2].
Taken in the same sequence, the figures for `Cc1cccc(C)c1Cc1nc([C@@H]2CC23CCN(S(N)(=O)=O)CC3)no1` [Example E6] were 500 to 5000 nM and 930 nM.
Taken in the same sequence, the figures for `Cc1ccc(C(F)(F)F)nc1-c1nc([C@@H]2CC23CCN(S(N)(=O)=O)CC3)no1` [Example E19] were 100 to 500 nM and 290 nM.
As to `NS(=O)(=O)N1CCC2(CC1)C[C@H]2c1noc(-c2ccccc2OCC(F)(F)F)n1` [Example D18], the EC50 runs as follows: under setting [1], 100 to 500 nM; under setting [2], 160 nM.
The corresponding values for `NS(=O)(=O)N1CCC2(C(F)C1)C(c1nc(-c3ccc(F)cc3C(F)(F)F)no1)C2(F)F` (stereo not drawn) [Example I15] are 500 to 5000 nM and 1400 nM.
Turning to `COc1ccc(Cl)cc1-c1noc([C@H]2CC23CCN(S(N)(=O)=O)CC3)n1` [Example H1], the EC50 under setting [1] lay within 5000 to 50000 nM.
As to `COc1ccc(Cl)cc1-c1noc(C2CC23CCN(S(=O)(=O)CC2CCCCO2)CC3)n1` (mixture of isomers) [Example B3], the EC50 by setting is: under setting [1], 500 to 5000 nM; under setting [2], 1300 nM.
Consider `COc1ccc(Cl)cc1-c1noc(C2CC23CCN(C(=O)NC2CCCCC2)CC3)n1` (racemic) [Example B10], for which the EC50 under setting [1] was 500 to 5000 nM.
Take `NS(=O)(=O)N1CCC2(C(F)C1)C(c1nc(-c3ccc(F)cc3C(F)(F)F)no1)C2(F)F` (stereo not drawn) [Example I16]: the EC50 reads like this: under setting [1], 500 to 5000 nM; under setting [2], 2100 nM.
In the case of `NS(=O)(=O)N1CCC2(CC1)C[C@H]2c1nnc(-c2ccccc2OCC(F)(F)F)s1` [Example F7], the EC50 was 100 to 500 nM under setting [1] and 480 nM under setting [2].
The corresponding values for `NS(=O)(=O)N1CCC2(CC1)C[C@H]2c1noc(C2CCc3c(F)cccc32)n1` (mixture of isomers) [Example E13] are 500 to 5000 nM and 1300 nM.
With `NS(=O)(=O)N1CCC2(CC1)[C@H](c1noc(-c3cnn4c3CSC4)n1)C2(F)F` [Example E53], the EC50 was 500 to 5000 nM under setting [1] and 1200 nM under setting [2].
In the case of `COc1ccc(Cl)cc1-c1noc(C2CC23CCN(S(=O)(=O)c2ccn(C)n2)CC3)n1` (racemic) [Example B4], the EC50 reads like this: under setting [1], 500 to 5000 nM; under setting [2], 3200 nM.
With `NS(=O)(=O)N1CCC2(CC1)C[C@H]2c1nc(-c2cc(F)ccc2C(F)(F)F)no1` [Example A4], the EC50 by setting is: under setting [1], 500 to 5000 nM; under setting [2], 850 nM.
As for `COc1ccc(Cl)cc1-c1noc(C2CC23CCN(S(=O)(=O)c2ccc4ncsc4c2)CC3)n1` (racemic) [Example B7], the EC50 was 500 to 5000 nM under setting [1] and 3300 nM under setting [2].
With `NS(=O)(=O)N1CCC2(CC1)[C@H](c1noc(-c3ccnnc3C3CC3)n1)C2(F)F` [Example E49], the EC50 by setting is: under setting [1], 100 to 500 nM; under setting [2], 270 nM.
On to `NS(=O)(=O)N1CCC2(CC1)C[C@H]2c1nnc(-c2ccccc2OCC(F)(F)F)o1` [Example F6], for which the EC50 was 500 to 5000 nM under setting [1] and 590 nM under setting [2].
`COc1ccc(Cl)cc1-c1noc(C2CC23CCN(S(N)(=O)=O)CC3)n1` (racemic) [Example C13]: the EC50 under setting [1] lay in the range of 500 to 5000 nM.
Turning to `NS(=O)(=O)N1CCC2(CC1)[C@H](c1noc(-c3ccnc(OC(F)F)c3)n1)C2(F)F` [Example 10, (2R)-2-{5-[2-(Difluoromethoxy)pyridin-4-yl]-1,2,4-oxadiazol-3-yl}-1,1-difluoro-6-azaspiro[2.5]octane-6-sulfonamide], the EC50 was 100 to 500 nM under setting [1] and 220 nM under setting [2].
The corresponding values for `Cc1cnn(C2CC2)c1-c1noc(C2C(F)(F)C23CCN(S(N)(=O)=O)CC3)n1` (stereo not drawn) [Example C10] are less than 100 nM and 82 nM.
Taken in the same sequence, the figures for `Cc1noc(C)c1-c1noc(C2C(F)(F)C23CCN(S(N)(=O)=O)CC3)n1` (racemic) [Example C3] were 100 to 500 nM and 400 nM.
As for `Cc1onc(C2CC2)c1-c1nnc([C@@H]2CC23CCN(S(N)(=O)=O)CC3)s1` [Example F12], the EC50 by setting is: under setting [1], 500 to 5000 nM; under setting [2], 850 nM.
In the case of `Cc1ccccc1-c1nnc([C@H]2C(F)(F)C23CCN(S(N)(=O)=O)CC3)s1` [Example H6], the EC50 is, setting by setting: under setting [1], 500 to 5000 nM; under setting [2], 3400 nM.
As for `NS(=O)(=O)N1CCC2(CC1)C[C@H]2c1noc(Cc2cc(C(F)(F)F)ccc2F)n1` [Example E5], the EC50 under setting [1] fell in the range of 500 to 5000 nM.
As for `Cc1ncccc1-c1nc([C@@H]2CC23CCN(S(N)(=O)=O)CC3)no1` [Example E2], the EC50 under setting [1] fell in the range of 500 to 5000 nM and the EC50 under setting [2] was 1100 nM.
Turning to `NS(=O)(=O)N1CCC2(CC1)C[C@H]2c1noc(-c2cccc(-c3ccc(F)cc3)c2)n1` [Example E74], the EC50 under setting [1] lay within 100 to 500 nM.
As to `NS(=O)(=O)N1CCC2(CC1)C[C@H]2c1noc(-c2ccc(Cl)cc2OC(F)F)n1` [Example D10], the EC50 under setting [1] was less than 100 nM and the EC50 under setting [2] worked out at 88 nM.
Regarding `COc1ccc(Cl)cc1-c1nc(C2CC23CCN(S(C)(=O)=O)CC3)no1` (single isomer, unassigned) [Example 26, 1-[5-(5-Chloro-2-methoxyphenyl)-1,2,4-oxadiazol-3-yl]-6-(methylsulfonyl)-6-azaspiro[2.5]octane], the EC50 runs as follows: under setting [1], 100 to 500 nM; under setting [2], 480 nM.
With `Cc1cnc(OC(F)F)cc1-c1nc([C@@H]2C(F)(F)C23CCN(S(N)(=O)=O)CC3)no1` [Example 13, (2R)-2-{5-[2-(Difluoromethoxy)-5-methylpyridin-4-yl]-1,2,4-oxadiazol-3-yl}-1,1-difluoro-6-azaspiro[2.5]octane-6-sulfonamide], the EC50 under setting [1] is less than 100 nM and the EC50 under setting [2] amounted to 73 nM.
On to `NS(=O)(=O)N1CCC2(CC1)C(c1nc(-c3ccnc(C(F)(F)F)c3)no1)C2(F)F` (stereo not drawn) [Example C8], for which the EC50 is 500 to 5000 nM under setting [1] and 1300 nM under setting [2].
Take `Cc1ccccc1-c1nnc([C@@H]2C(F)(F)C23CCN(S(N)(=O)=O)CC3)o1` [Example F13]: the EC50 by setting is: under setting [1], 100 to 500 nM; under setting [2], 400 nM.
As for `NS(=O)(=O)N1CCC2(CC1)C[C@H]2c1noc(-c2ncccc2OCC(F)(F)F)n1` [Example E78], the EC50 is 500 to 5000 nM under setting [1] and 1200 nM under setting [2].
Turning to `CCn1nc(-c2nc([C@@H]3CC34CCN(S(N)(=O)=O)CC4)no2)cc1C` [Example 27, (1R)-1-[5-(1-Ethyl-5-methyl-TH-pyrazol-3-yl)-1,2,4-oxadiazol-3-yl]-6-azaspiro[2.5]octane-6-sulfonamide], the EC50 by setting is: under setting [1], 500 to 5000 nM; under setting [2], 4000 nM.
Regarding `CC(C)(C)n1nccc1-c1nc([C@@H]2C(F)(F)C23CCN(S(N)(=O)=O)CC3)no1` [Example E35], the EC50 under setting [1] was 100 to 500 nM and the EC50 under setting [2] was 250 nM.
For `COc1ccc(Cl)cc1-c1noc(C2CC23CCN(C(=O)NCc2ccccc2)CC3)n1` (racemic) [Example B13], the EC50 is 5000 to 50000 nM under setting [1] and 5100 nM under setting [2].
Taken in the same sequence, the figures for `NS(=O)(=O)N1CCC2(CC2c2nc(-c3cccc(OC(F)F)c3)no2)C(F)C1` (single isomer, unassigned) [Example I2] were 500 to 5000 nM and 1000 nM.
Take `NS(=O)(=O)N1CCC2(CC1)C[C@H]2c1noc(-c2cc(F)ccc2OC(F)(F)F)n1` [Example D21]: the EC50 under setting [1] fell in the range of 100 to 500 nM and the EC50 under setting [2] worked out at 240 nM.
As to `NS(=O)(=O)N1CCC2(C(F)C1)C(c1nc(-c3ccc(F)cc3C(F)(F)F)no1)C2(F)F` (stereo not drawn) [Example I17], under setting [1], the EC50 lay in the range of 500 to 5000 nM.
As for `COc1ccc(-c2nc([C@@H]3CC34CCN(S(N)(=O)=O)CC4)no2)cc1` [Example D13], the EC50 runs as follows: under setting [1], 500 to 5000 nM; under setting [2], 700 nM.
Take `Cc1ccc(C)c(-c2nc([C@@H]3CC34CCN(S(N)(=O)=O)CC4)no2)c1` [Example 2, (1R)-1-[5-(2,5-Dimethylphenyl)-1,2,4-oxadiazol-3-yl]-6-azaspiro[2.5]octane-6-sulfonamide]: the EC50 is less than 100 nM under setting [1] and 82 nM under setting [2].
With `NS(=O)(=O)N1CCC2(CC1)[C@@H](c1nc(C3CCCCC3)no1)C2(F)F` [Example H3], the EC50 reads like this: under setting [1], 500 to 5000 nM; under setting [2], 4500 nM.
For the compound `Cc1n[nH]c(C2CC2)c1-c1nc([C@@H]2C(F)(F)C23CCN(S(N)(=O)=O)CC3)no1` [Example E41], the EC50 under setting [1] is less than 100 nM and the EC50 under setting [2] amounted to 15 nM.
`NS(=O)(=O)N1CCC2(CC2c2nc(-c3conc3C3CC3)no2)C(F)C1` (single isomer, unassigned) [Example I10]: the EC50 runs as follows: under setting [1], 500 to 5000 nM; under setting [2], 3400 nM.
Taken in the same sequence, the figures for `NS(=O)(=O)N1CCC2(CC1)C[C@H]2c1nc(-c2ccccc2)co1` [Example G1] were 500 to 5000 nM and 4000 nM.
Turning to `NS(=O)(=O)N1CCC2(CC1)C(c1nc(-c3ccn4ccnc4c3)no1)C2(F)F` (stereo not drawn) [Example C11], the EC50 runs as follows: under setting [1], 500 to 5000 nM; under setting [2], 2500 nM.
Consider `NS(=O)(=O)N1CCC2(CC1)C[C@H]2c1noc(-c2ccc(OC(F)F)cc2)n1` [Example D14], for which, under setting [1], the EC50 is 500 to 5000 nM.
